Reference: US9315490B2, “2,5-substituted pyrimidines” (Grünenthal GmbH, priority 2014, dated 2016)
One block for each compound: values may come before it.

Columns and labels:
[1] = target: T1, human PDE4B1 (Homo sapiens, UniProt Q07343); assay: TR-FRET assay using the LANCE Ultra cAMP kit to determine the activity of hPDE4B1; assay type: biochemical; settings: for inhibition at 10 µM / inhibition at 1 µM: read-out: Inhibition in % (inhibition of PDE4B)
T1 construct: host or cells: Sf9 cells
Source text: TR-FRET Assay Using the LANCE® Ultra cAMP Kit to Determine the Activity of hPDE4B1
The effects of the compounds on the activity of the human PDE4B1 was quantified by measuring the production of 5′AMP from cAMP using a human recombinant enzyme expressed in Sf9 cells and the LANCE® Ultra cAMP kit, a TR-FRET detection method from PerkinElmer. The human PDE4B1 enzyme was purchased from SignalChem Lifesciences (Catalog# P92-31BG, Lot# H296-2).
The test compound, reference compound or water (control) was mixed with the enzyme (0.96 U) in a reaction buffer containing 50 mM Tris-HCl, 50 mM MgCl2 and 5 mM DTT (pH 8.5). Thereafter, the reaction was initiated by addition of 500 nM cAMP (substrate) and the mixture was incubated for 30 minutes at room temperature. For control basal measurements, the enzyme was omitted from the reaction mixture. After 30 minutes, the reaction was stopped and diluted by a factor of 100 with the reaction buffer supplemented with 500 μM IBMX. The fluorescence donor (europium chelate-labeled cAMP) and the fluorescence acceptor (anti-cAMP antibody labeled with the ULight™ dye) were then added together with 500 μM IBMX to a 10 μl aliquot. After 60 minutes, the fluorescence transfer corresponding to the amount of residual cAMP was measured at λex=337 nm, λem=620 nm and λem=665 nm using a microplate reader (PHERAstar, BMG). The enzyme activity was determined by dividing the signal measured at 665 nm by that measured at 620 nm (ratio) multiplied by 10000. The results were expressed as percent inhibition of the control enzyme activity. IC50 values (IC50=concentration causing a half-maximal inhibition of control specific activity) were derived from dose response measurements with ten different concentrations (n=3; N=1-3).

[2] = target: T1, human PDE4B1; assay: cAMP HTRF assay to determine the activity of hPDE4B1; assay type: biochemical; settings: inhibition of PDE4B at a test concentration of 1 μM
Summary of the method: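 […], using HTRF quantitation of residual cAMP after 1 mM IBMX stop and 60 min detection. Enzyme was Sf9-expressed human PDE4B1 incubated 30 min at room temperature with 40 nM final cAMP at pH 7.8.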

[3] = test concentration 10 μM (marked in cell)

T1 sequence (Q07343 whole entry): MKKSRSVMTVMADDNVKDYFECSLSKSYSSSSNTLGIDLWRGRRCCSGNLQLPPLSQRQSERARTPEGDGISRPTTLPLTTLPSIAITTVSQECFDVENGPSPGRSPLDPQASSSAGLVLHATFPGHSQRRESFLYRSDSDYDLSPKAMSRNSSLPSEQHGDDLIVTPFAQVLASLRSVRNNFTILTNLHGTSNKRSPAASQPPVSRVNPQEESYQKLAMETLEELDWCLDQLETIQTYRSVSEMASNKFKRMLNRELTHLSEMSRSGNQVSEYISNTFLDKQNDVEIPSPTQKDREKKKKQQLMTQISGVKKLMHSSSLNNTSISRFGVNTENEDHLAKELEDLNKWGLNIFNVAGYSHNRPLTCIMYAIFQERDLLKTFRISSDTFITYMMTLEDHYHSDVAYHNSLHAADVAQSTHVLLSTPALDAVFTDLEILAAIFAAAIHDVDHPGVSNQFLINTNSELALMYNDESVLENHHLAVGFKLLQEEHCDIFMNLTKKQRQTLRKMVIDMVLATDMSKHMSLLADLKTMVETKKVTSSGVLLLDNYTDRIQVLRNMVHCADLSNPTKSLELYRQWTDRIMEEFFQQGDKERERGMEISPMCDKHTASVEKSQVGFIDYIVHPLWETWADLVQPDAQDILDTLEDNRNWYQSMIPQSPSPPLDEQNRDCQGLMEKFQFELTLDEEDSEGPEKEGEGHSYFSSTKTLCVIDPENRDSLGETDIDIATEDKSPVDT

inhibition at 1 µM [2]: 45%
SMILES: COC(=O)C1CCN(C(=O)c2ccc3c([S+](C)[O-])cn(-c4ncc(-c5ccccc5F)cn4)c3c2)C1 (stereo not drawn) [Example 388, Methyl 1-(1-(5-(2-fluorophenyl)pyrimidin-2-yl)-3-(methylsulfinyl)-1H-indole-6-carbonyl)pyrrolidine-3-carboxylate]

inhibition at 1 µM [2]: 52%
SMILES: C[S+]([O-])c1cn(-c2ncc(-c3ccccc3F)cn2)c2cc(C(=O)N3CCN(CCO)CC3)ccc12 (stereo not drawn) [Example 389, (1-(5-(2-Fluorophenyl)pyrimidin-2-yl)-3-(methylsulfinyl)-1H-indol-6-yl)(4-(2-hydroxyethyl)piperazin-1-yl)methanone]

inhibition at 1 µM [2]: 6%
SMILES: C[S+]([O-])c1cn(-c2ncc(-c3ccccc3F)cn2)c2cc(C(=O)N3CCS(=O)(=O)CC3)ccc12 (stereo not drawn) [Example 390, (1,1-Dioxidothiomorpholino)(1-(5-(2-fluorophenyl)pyrimidin-2-yl)-3-(methylsulfinyl)-1H-indol-6-yl)methanone]

inhibition at 1 µM [2]: 31%
SMILES: C[S+]([O-])c1cn(-c2ncc(-c3ccccc3F)cn2)c2cc(C(=O)N3CCN(CCC#N)CC3)ccc12 (stereo not drawn) [Example 391, 3-(4-(1-(5-(2-Fluorophenyl)pyrimidin-2-yl)-3-(methylsulfinyl)-1H-indole-6-carbonyl)piperazin-1-yl)propanenitrile]

inhibition at 1 µM [2]: 0%
SMILES: COCCN1CCN(C(=O)c2ccc3c([S+](C)[O-])cn(-c4ncc(-c5ccccc5F)cn4)c3c2)CC1 (stereo not drawn) [Example 392, (1-(5-(2-Fluorophenyl)pyrimidin-2-yl)-3-(methylsulfinyl)-1H-indol-6-yl)(4-(2-methoxyethyl)piperazin-1-yl)methanone]

inhibition at 1 µM [2]: 10%
SMILES: CCOC(=O)C1CCN(C(=O)c2ccc3c([S+](C)[O-])cn(-c4ncc(-c5ccccc5F)cn4)c3c2)CC1 (stereo not drawn) [Example 393, Ethyl 1-(1-(5-(2-fluorophenyl)pyrimidin-2-yl)-3-(methylsulfinyl)-1H-indole-6-carbonyl)piperidine-4-carboxylate]

inhibition at 1 µM [2]: 0%
SMILES: CCOC(=O)N1CCN(C(=O)c2ccc3c([S+](C)[O-])cn(-c4ncc(-c5ccccc5F)cn4)c3c2)CC1 (stereo not drawn) [Example 394, Ethyl 4-(1-(5-(2-fluorophenyl)pyrimidin-2-yl)-3-(methylsulfinyl)-1H-indole-6-carbonyl)piperazine-1-carboxylat]

inhibition at 1 µM [2]: 0%
SMILES: CN(C)C(=O)CN1CCN(C(=O)c2ccc3c([S+](C)[O-])cn(-c4ncc(-c5ccccc5F)cn4)c3c2)CC1 (stereo not drawn) [Example 395, 2-(4-(1-(5-(2-Fluorophenyl)pyrimidin-2-yl)-3-(methylsulfinyl)-1H-indole-6-carbonyl)piperazin-1-yl)-N,N-dimethylacetamide]

Second part, the compound before the results:

SMILES: CN(CC(N)=O)C(=O)c1ccc2c([S+](C)[O-])cn(-c3ncc(-c4cc(C5CC5)ccn4)cn3)c2c1 (single isomer, unassigned) [Example 333, N-(2-Amino-2-oxoethyl)-1-(5-(4-cyclopropylpyridin-2-yl)pyrimidin-2-yl)-N-methyl-3-(methylsulfinyl)-1H-indole-6-carboxamide]
inhibition at 10 µM [1, 3]: 87%

SMILES: CN(CC(N)=O)C(=O)c1ccc2c([S+](C)[O-])cn(-c3ncc(-c4cc(C(C)(C)O)ccc4F)cn3)c2c1 (single isomer, unassigned) [Example 334, N-(2-Amino-2-oxoethyl)-1-(5-(2-fluoro-5-(2-hydroxypropan-2-yl)phenyl)pyrimidin-2-yl)-N-methyl-3-(methylsulfinyl)-1H-indole-6-carboxamide]
inhibition at 10 µM [1, 3]: 99%

SMILES: CN(CC(N)=O)C(=O)c1ccc2c([S+](C)[O-])cn(-c3ncc(-c4cc(C5CC5)ccc4F)cn3)c2c1 (single isomer, unassigned) [Example 335, N-(2-Amino-2-oxoethyl)-1-(5-(5-cyclopropyl-2-fluorophenyl)pyrimidin-2-yl)-N-methyl-3-(methylsulfinyl)-1H-indole-6-carboxamide]
inhibition at 10 µM [1, 3]: 100%

SMILES: CC(O)c1ccc(F)c(-c2cnc(-n3cc(S(C)(=O)=O)c4ccc(C(=O)N5CCOCC5)cc43)nc2)c1 (single isomer, unassigned) [Example 344, (1-(5-(2-Fluoro-5-(1-hydroxyethyl)phenyl)pyrimidin-2-yl)-3-(methylsulfonyl)-1H-indol-6-yl)(morpholino)methanone]
inhibition at 10 µM [1, 3]: 96%

SMILES: CC(O)c1ccc(F)c(-c2cnc(-n3cc(S(C)(=O)=O)c4ccc(C(=O)N5CCOCC5)cc43)nc2)c1 (single isomer, unassigned) [Example 345, (1-(5-(2-Fluoro-5-(1-hydroxyethyl)phenyl)pyrimidin-2-yl)-3-(methylsulfonyl)-1H-indol-6-yl)(morpholino)methanone]
Inhibition in % (inhibition of PDE4B) ([1]; test concentration 10 μM (marked in cell), 10 µM): 95 (10 μM) %

SMILES: Cc1ccnc(-c2cnc(-n3cc([S+](C)[O-])c4ccc(C(=O)N5CCOCC5)cc43)nc2)c1 (single isomer, unassigned) [Example 351, (1-(5-(4-Methylpyridin-2-yl)pyrimidin-2-yl)-3-(methylsulfinyl)-1H-indol-6-yl)(morpholino)methanone]
inhibition at 1 µM ([1]; test concentration 1 μM): 93%

SMILES: Cc1ccnc(-c2cnc(-n3cc([S+](C)[O-])c4ccc(C(=O)N5CCOCC5)cc43)nc2)c1 (single isomer, unassigned) [Example 352, (1-(5-(4-Methylpyridin-2-yl)pyrimidin-2-yl)-3-(methylsulfinyl)-1H-indol-6-yl)(morpholino)methanone]
Inhibition in % (inhibition of PDE4B) ([1]; test concentration 1 μM, 1 µM): 95%

SMILES: CSc1cn(-c2ncc(-c3ccccc3F)cn2)c2cc(C(=O)N3CCOCC3)ccc12 [Example 1d, (1-(5-(2-Fluorophenyl)pyrimidin-2-yl)-3-(methylthio)-1H-indol-6-yl)(morpholino)methanone]
inhibition at 1 µM ([1]; test concentration 1 μM): 89%

SMILES: C[S+]([O-])c1cn(-c2ncc(-c3ccccc3F)cn2)c2cc(C(=O)N3CC4CNCC4C3)ccc12 (stereo not drawn) [Example 222, (1-(5-(2-Fluorophenyl)pyrimidin-2-yl)-3-(methylsulfinyl)-1H-indol-6-yl)(hexahydropyrrolo[3,4-c]pyrrol-2(1H)-yl)methanone]
inhibition at 1 µM ([1]; test concentration 1 μM): 73%

SMILES: Cc1ccnc(-c2cnc(-n3cc([S+](C)[O-])c4ccc(C(=O)N5C[C@@H]6C[C@H]5CN6)cc43)nc2)c1 (stereo partly drawn) [Example 245, (1S,4S)-2,5-Diazabicyclo[2.2.1]heptan-2-yl(1-(5-(4-methylpyridin-2-yl)pyrimidin-2-yl)-3-(methylsulfinyl)-1H-indol-6-yl)methanone]
inhibition at 1 µM ([1]; test concentration 1 μM): 86%

SMILES: CCc1ccnc(-c2cnc(-n3cc([S+](C)[O-])c4ccc(C(=O)N5C[C@@H]6C[C@H]5CN6)cc43)nc2)c1 (stereo partly drawn) [Example 246, (1S,4S)-2,5-Diazabicyclo[2.2.1]heptan-2-yl(1-(5-(4-ethylpyridin-2-yl)pyrimidin-2-yl)-3-(methylsulfinyl)-1H-indol-6-yl)methanone]
inhibition at 1 µM ([1]; test concentration 1 μM): 96%

SMILES: Cc1cccc(-c2cnc(-n3cc([S+](C)[O-])c4ccc(C(=O)N5C[C@@H]6C[C@H]5CN6)cc43)nc2)n1 (stereo partly drawn) [Example 247, (1S,4S)-2,5-Diazabicyclo[2.2.1]heptan-2-yl(1-(5-(6-methylpyridin-2-yl)pyrimidin-2-yl)-3-(methylsulfinyl)-1H-indol-6-yl)methanone]
inhibition at 1 µM ([1]; test concentration 1 μM): 90%

SMILES: CN(C)c1ccnc(-c2cnc(-n3cc([S+](C)[O-])c4ccc(C(=O)N5C[C@@H]6C[C@H]5CN6)cc43)nc2)c1 (stereo partly drawn) [Example 248, (1S,4S)-2,5-Diazabicyclo[2.2.1]heptan-2-yl(1-(5-(4-(dimethylamino)pyridin-2-yl)pyrimidin-2-yl)-3-(methylsulfinyl)-1H-indol-6-yl)methanone]
inhibition at 1 µM ([1]; test concentration 1 μM): 97%

SMILES: CC(=O)N1CCN(C(=O)c2ccc3c([S+](C)[O-])cn(-c4ncc(-c5ccccc5F)cn4)c3c2)CC1 (stereo not drawn) [Example 385, 1-(4-(1-(5-(2-Fluorophenyl)pyrimidin-2-yl)-3-(methylsulfinyl)-1H-indole-6-carbonyl)piperazin-1-yl)ethanone]
inhibition at 1 µM [2]: 0%

SMILES: CC(C)N1CCN(C(=O)c2ccc3c([S+](C)[O-])cn(-c4ncc(-c5ccccc5F)cn4)c3c2)CC1 (stereo not drawn) [Example 386, (1-(5-(2-Fluorophenyl)pyrimidin-2-yl)-3-(methylsulfinyl)-1H-indol-6-yl)(4-isopropylpiperazin-1-yl)methanone]
inhibition at 1 µM [2]: 6%

SMILES: CN(C)C1CCN(C(=O)c2ccc3c([S+](C)[O-])cn(-c4ncc(-c5ccccc5F)cn4)c3c2)CC1 (stereo not drawn) [Example 387, (4-(Dimethylamino)piperidin-1-yl)(1-(5-(2-fluorophenyl)pyrimidin-2-yl)-3-(methylsulfinyl)-1H-indol-6-yl)methanone]
inhibition at 1 µM [2]: 8%
